Consider 23 compounds from patent US10494355B2, “Oxadiazole amine derivative compounds as histone deacetylase 6 inhibitor, and the pharmaceutical composition comprising the same” (Chong Kun Dang Pharmaceutical Corp., priority 2015, dated 2019).

Where only a bound is given, the exact number is not on record here.

In assay [1] the target is T1, human recombinant HDAC1 (Homo sapiens, UniProt Q13547).
T1 construct: purchased Enzo Life Science BML-SE456
Briefly: HDAC1 enzyme activity inhibition assay (HDAC Fluorimetric Drug Discovery Kit). It counts as biochemical. The note with it: human recombinant HDAC1, 10 μM substrate, 30° C. 60 minutes. As for the experimental part: (§1) In order to examine the HDAC6 selectivity of the compounds of formula I of the present invention by HDAC1 and HDAC6 enzymatic activity inhibition assays, an experiment was performed using a conventional substance as a control.
(§2) HDAC enzyme activity was measured using a HDAC Fluorimetric Drug Discovery Kit (BML-AK511, 516, Enzo Life Science). For the HDAC1 enzyme activity test, human recombinant HDAC1 (BML-SE456) was used as an enzyme source, and Fluor de Lys®-“SIRT1 (BNL-KI177) was used as a substrate. A 5-fold dilution of the compound was seeded into a 96-well plate, and then 0.3 μg of the enzyme and 10 μM of the substrate were added to each well of the plate and allowed to react at 30° C. for 60 minutes. Then, Fluor de Lys®-Developer II (BML-KI176) was added thereto and allowed to react for 30 minutes, after which the fluorescence value (Ex 360, Em 460) was measured using a multi-plate reader (Flexstation 3, Molecular Device). The HDAC6 enzyme was tested using human recombinant HDAC6 (382180) (Calbiochem) according to the same protocol as the HDAC1 enzyme activity test method. Based on the resulting values, each IC50 value was calculated using GraphPad Prism4.0 program.

For assay [2], the target named is T2, human recombinant HDAC6 (Homo sapiens, UniProt Q9UBN7).
T2 construct: purchased Calbiochem 382180
T2 sequence (Q9UBN7 1-1215): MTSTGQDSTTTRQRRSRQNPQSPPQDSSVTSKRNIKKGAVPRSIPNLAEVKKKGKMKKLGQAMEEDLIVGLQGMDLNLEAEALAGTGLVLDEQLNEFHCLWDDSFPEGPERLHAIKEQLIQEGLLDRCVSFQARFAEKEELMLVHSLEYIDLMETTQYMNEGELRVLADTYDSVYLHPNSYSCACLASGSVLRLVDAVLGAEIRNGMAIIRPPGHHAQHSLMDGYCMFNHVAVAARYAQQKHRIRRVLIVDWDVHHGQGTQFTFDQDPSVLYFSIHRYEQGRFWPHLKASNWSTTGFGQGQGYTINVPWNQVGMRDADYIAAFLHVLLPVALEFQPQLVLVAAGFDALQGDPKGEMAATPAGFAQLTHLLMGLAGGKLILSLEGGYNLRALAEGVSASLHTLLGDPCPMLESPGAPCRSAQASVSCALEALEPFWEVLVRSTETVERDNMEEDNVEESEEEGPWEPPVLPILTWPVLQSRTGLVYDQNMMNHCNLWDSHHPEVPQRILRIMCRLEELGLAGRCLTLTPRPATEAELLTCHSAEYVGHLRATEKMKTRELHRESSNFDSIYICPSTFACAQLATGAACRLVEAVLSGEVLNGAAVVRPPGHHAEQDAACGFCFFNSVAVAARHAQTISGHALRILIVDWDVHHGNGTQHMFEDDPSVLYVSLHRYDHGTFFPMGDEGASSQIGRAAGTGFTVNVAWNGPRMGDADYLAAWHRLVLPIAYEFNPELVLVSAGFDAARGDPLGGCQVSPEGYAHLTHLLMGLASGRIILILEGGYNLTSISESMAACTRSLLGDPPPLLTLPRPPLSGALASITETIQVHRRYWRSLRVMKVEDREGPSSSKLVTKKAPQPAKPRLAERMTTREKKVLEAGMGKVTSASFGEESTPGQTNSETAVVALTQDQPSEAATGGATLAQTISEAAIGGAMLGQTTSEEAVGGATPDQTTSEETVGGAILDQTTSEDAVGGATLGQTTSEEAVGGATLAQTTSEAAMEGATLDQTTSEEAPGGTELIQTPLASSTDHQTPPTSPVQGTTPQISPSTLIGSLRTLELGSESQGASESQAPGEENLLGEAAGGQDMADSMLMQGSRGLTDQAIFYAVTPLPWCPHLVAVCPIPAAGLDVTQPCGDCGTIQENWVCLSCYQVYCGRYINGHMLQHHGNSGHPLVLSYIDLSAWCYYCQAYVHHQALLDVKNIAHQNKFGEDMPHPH
Briefly: HDAC6 enzyme activity inhibition assay (HDAC Fluorimetric Drug Discovery Kit). It counts as biochemical. The note with it: 30° C. 60 minutes. On the procedure:
as §1, §2

T1 sequence (Q13547 whole entry): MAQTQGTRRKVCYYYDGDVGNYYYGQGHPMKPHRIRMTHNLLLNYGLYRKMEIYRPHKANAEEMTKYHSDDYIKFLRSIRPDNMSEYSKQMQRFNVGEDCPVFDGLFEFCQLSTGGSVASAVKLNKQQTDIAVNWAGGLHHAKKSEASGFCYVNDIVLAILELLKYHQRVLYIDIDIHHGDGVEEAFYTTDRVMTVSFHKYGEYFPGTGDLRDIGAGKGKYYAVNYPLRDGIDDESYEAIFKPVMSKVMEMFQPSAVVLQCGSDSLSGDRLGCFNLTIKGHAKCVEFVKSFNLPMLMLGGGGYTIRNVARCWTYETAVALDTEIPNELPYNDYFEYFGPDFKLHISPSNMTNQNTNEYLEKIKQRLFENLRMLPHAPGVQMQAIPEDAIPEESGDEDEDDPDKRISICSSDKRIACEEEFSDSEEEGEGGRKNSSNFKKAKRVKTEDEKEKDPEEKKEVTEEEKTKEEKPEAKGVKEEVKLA

`FC(F)c1nnc(-c2cnc(NC3(c4ccc(C(F)(F)F)cc4)CC3)nc2)o1` [Compound 1738, 5-(5-(difluoromethyl)-1,3,4-oxadiazol-2-yl)-N-(1-(4-(trifluoromethyl)phenyl)cyclopropyl)pyrimidin-2-amine]: the IC50 is > 10000 nM in assay [1] and 132 nM in assay [2].

Turning to `Fc1ccc(Cl)cc1C1(Nc2ncc(-c3nnc(C(F)F)o3)cn2)CCC1` [Compound 1963, N-(1-(5-chloro-2-fluorophenyl)cyclobutyl)-5-(5-(difluoromethyl)-1,3,4-oxadiazol-2-yl)pyrimidin-2-amine], the IC50 was > 10000 nM in assay [1] and 89 nM in assay [2].

Regarding `Cc1cccc(C2(Nc3ncc(-c4nnc(C(F)(F)F)o4)cn3)CCC2)c1` [Compound 1674, N-(1-(m-tolyl)cyclobutyl)-5-(5-(trifluoromethyl)-1,3,4-oxadiazol-2-yl)pyrimidin-2-amine], the IC50 in assay [1] is > 10000 nM; in assay [2] it was 132 nM.

On to `FC(F)c1nnc(-c2cnc(NC3(c4cccc(C(F)(F)F)c4)CC3)nc2)o1` [Compound 1740, 5-(5-(difluoromethyl)-1,3,4-oxadiazol-2-yl)-N-(1-(3-(trifluoromethyl)phenyl)cyclopropyl)pyrimidin-2-amine], for which the concentration for half-maximal inhibition (IC50) in assay [1] is > 10000 nM; in assay [2] it was 62 nM.

For `Fc1cccc(F)c1C1(Nc2ncc(-c3nnc(C(F)F)o3)cn2)CCC1` [Compound 1828, 5-(5-(difluoromethyl)-1,3,4-oxadiazol-2-yl)-N-(1-(2,6-difluorophenyl)cyclobutyl)pyrimidin-2-amine], the values for the IC50 in assay [1] and in assay [2] were > 10000 nM and 39 nM, respectively.

For `FC(F)c1nnc(-c2cnc(NC3(c4ccc(N5CCOCC5)cc4)CCC3)nc2)o1` [Compound 2062, 5-(5-(difluoromethyl)-1,3,4-oxadiazol-2-yl)-N-(1-(4-morpholinophenyl)cyclobutyl)pyrimidin-2-amine], the IC50 was > 10000 nM in assay [1] and 256 nM in assay [2].

`CN1CCC(c2ccc(C3(Nc4ncc(-c5nnc(C(F)F)o5)cn4)CCC3)cc2)CC1` [Compound 2035, 5-(5-(difluoromethyl)-1,3,4-oxadiazol-2-yl)-N-(1-(4-(1-methylpiperidin-4-yl)phenyl)cyclobutyl)pyrimidin-2-amine]: the figures for the IC50 in assay [1] and in assay [2] were > 10000 nM and 367 nM, respectively.

For `Fc1c(Cl)cccc1C1(Nc2ncc(-c3nnc(C(F)(F)F)o3)cn2)CCC1` [Compound 1966, N-(1-(3-chloro-2-fluorophenyl)cyclobutyl)-5-(5-(trifluoromethyl)-1,3,4-oxadiazol-2-yl)pyrimidin-2-amine], the figures for the IC50 in assay [1] and in assay [2] were > 10000 nM and 1470 nM, respectively.

On to `Fc1ccc(Cl)cc1C1(Nc2ncc(-c3nnc(C(F)(F)F)o3)cn2)CCC1` [Compound 1964, N-(1-(5-chloro-2-fluorophenyl)cyclobutyl)-5-(5-(trifluoromethyl)-1,3,4-oxadiazol-2-yl)pyrimidin-2-amine], for which the results for the IC50 in assay [1] and in assay [2] were > 10000 nM and 1850 nM, respectively.

In the case of `Fc1ccccc1C1(Nc2ncc(-c3nnc(C(F)(F)F)o3)cn2)CCC1` [Compound 1610, N-(1-(2-fluorophenyl)cyclobutyl)-5-(5-(trifluoromethyl)-1,3,4-oxadiazol-2-yl)pyrimidin-2-amine], the half-maximal inhibitory concentration (IC50) in assay [1] was > 10000 nM; in assay [2] it was 151 nM.

As to `FC(F)c1nnc(-c2cnc(NC3(c4ccc5c(c4)OCO5)CCC3)nc2)o1` [Compound 1820, N-(1-(benzo[d][1,3]dioxol-5-yl)cyclobutyl)-5-(5-(difluoromethyl)-1,3,4-oxadiazol-2-yl)pyrimidin-2-amine], the figures for the IC50 in assay [1] and in assay [2] were > 10000 nM and 83 nM, respectively.

Turning to `Fc1ccc(C2(Nc3ncc(-c4nnc(C(F)(F)F)o4)cn3)CCC2)cc1` [Compound 1612, N-(1-(4-fluorophenyl)cyclobutyl)-5-(5-(trifluoromethyl)-1,3,4-oxadiazol-2-yl)pyrimidin-2-amine], the figures for the IC50 in assay [1] and in assay [2] were > 10000 nM and 455 nM, respectively.

With `COc1ccc(C2(Nc3ncc(-c4nnc(C(F)F)o4)cn3)CCC2)cc1` [Compound 1603, 5-(5-(difluoromethyl)-1,3,4-oxadiazol-2-yl)-N-(1-(4-methoxyphenyl)cyclobutyl)pyrimidin-2-amine], the values for the IC50 in assay [1] and in assay [2] were > 10000 nM and 50 nM, respectively.

For `COc1ccccc1C1(Nc2ncc(-c3nnc(C(F)F)o3)cn2)CC1` [Compound 2047, 5-(5-(difluoromethyl)-1,3,4-oxadiazol-2-yl)-N-(1-(2-methoxyphenyl)cyclopropyl)pyrimidin-2-amine], the results for the IC50 in assay [1] and in assay [2] were > 10000 nM and 32 nM, respectively.

Take `Cc1ccccc1C1(Nc2ncc(-c3nnc(C(F)F)o3)cn2)CC1` [Compound 2055, 5-(5-(difluoromethyl)-1,3,4-oxadiazol-2-yl)-N-(1-(o-tolyl)cyclopropyl)pyrimidin-2-amine]: the IC50 was > 10000 nM in assay [1] and 31 nM in assay [2].

For the compound `FC(F)c1nnc(-c2cnc(NC3(c4ccc(C(F)(F)F)cc4)CCC3)nc2)o1` [Compound 2043, 5-(5-(difluoromethyl)-1,3,4-oxadiazol-2-yl)-N-(1-(4-(trifluoromethyl)phenyl)cyclobutyl)pyrimidin-2-amine], the 50% inhibitory concentration (IC50) in assay [1] was > 10000 nM; in assay [2], 277 nM.

Regarding `Fc1cccc(C2(Nc3ncc(-c4nnc(C(F)(F)F)o4)cn3)CC2)c1` [Compound 1714, N-(1-(3-fluorophenyl)cyclopropyl)-5-(5-(trifluoromethyl)-1,3,4-oxadiazol-2-yl)pyrimidin-2-amine], the IC50 in assay [1] is > 10000 nM; in assay [2] it was 138 nM.

In the case of `Fc1ccc(Cl)c(C2(Nc3ncc(-c4nnc(C(F)F)o4)cn3)CCC2)c1` [Compound 1961, N-(1-(2-chloro-5-fluorophenyl)cyclobutyl)-5-(5-(difluoromethyl)-1,3,4-oxadiazol-2-yl)pyrimidin-2-amine], the results for the IC50 in assay [1] and in assay [2] were > 10000 nM and 115 nM, respectively.

Take `Fc1ccc(C2(Nc3ncc(-c4nnc(C(F)F)o4)cn3)CCC2)c(F)c1` [Compound 2027, 5-(5-(difluoromethyl)-1,3,4-oxadiazol-2-yl)-N-(1-(2,4-difluorophenyl)cyclobutyl)pyrimidin-2-amine]: the IC50 is > 10000 nM in assay [1] and 90 nM in assay [2].

For `Fc1ccc(C2(Nc3ncc(-c4nnc(C(F)(F)F)o4)cn3)CCC2)cc1Cl` [Compound 1818, N-(1-(3-chloro-4-fluorophenyl)cyclobutyl)-5-(5-(trifluoromethyl)-1,3,4-oxadiazol-2-yl)pyrimidin-2-amine], the half-inhibitory concentration (IC50) in assay [1] was > 10000 nM; in assay [2] it was 751 nM.

On to `FC(F)c1nnc(-c2cnc(NC3(c4ccccc4)CCCCC3)nc2)o1` [Compound 1581, 5-(5-(difluoromethyl)-1,3,4-oxadiazol-2-yl)-N-(1-phenylcyclohexyl)pyrimidin-2-amine], for which the IC50 is > 10000 nM in assay [1] and 135 nM in assay [2].

Turning to `COc1cccc(C2(Nc3ncc(-c4nnc(C(F)(F)F)o4)cn3)CCC2)c1` [Compound 1606, N-(1-(3-methoxyphenyl)cyclobutyl)-5-(5-(trifluoromethyl)-1,3,4-oxadiazol-2-yl)pyrimidin-2-amine], the IC50 in assay [1] was > 10000 nM; in assay [2], 168 nM.

For the compound `Fc1ccc(C2(Nc3ncc(-c4nnc(C(F)F)o4)cn3)CC2)c(F)c1` [Compound 2061, 5-(5-(difluoromethyl)-1,3,4-oxadiazol-2-yl)-N-(1-(2,4-difluorophenyl)cyclopropyl)pyrimidin-2-amine], the IC50 in assay [1] was > 10000 nM; in assay [2], 43 nM.

For orientation: IC50 means the concentration that inhibits the measured activity by half.
